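Compound exposure: 48 hours, 5 concentrations, 96-well plates. GI50 marks 50% less growth.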 Active and inactive are the calls of the source. Cut-off read from the data, not from the text of the source: active = GI50 up to about 1.1 µM and inactive = higher.
Experiments:
Assay in all cases: NCI tumour cell line growth inhibition, 48 h
MDA-MB-231 = tested on: MDA-MB-231
A549 = tested on: A549
HCT-15 = tested on: HCT-15
NCI-H226 = tested on: NCI-H226
HOP-92 = tested on: HOP-92
K562 = tested on: K562
NCI/ADR-RES = tested on: NCI/ADR-RES
SF-295 = tested on: SF-295
Malme-3M = tested on: Malme-3M
786-0 = tested on: 786-0
SN12C = tested on: SN12C
RPMI-8226 = tested on: RPMI-8226
OVCAR-5 = tested on: OVCAR-5
COLO 205 = tested on: COLO 205
Hs-578T = tested on: Hs-578T
SR = tested on: SR
T47D = tested on: T47D
HT-29 = tested on: HT-29
SNB-19 = tested on: SNB-19
MOLT-4 = tested on: MOLT-4
SF-268 = tested on: SF-268
MDA-MB-435 = tested on: MDA-MB-435
SF-539 = tested on: SF-539
SK-OV-3 = tested on: SK-OV-3
UO-31 = tested on: UO-31
SK-MEL-5 = tested on: SK-MEL-5
ACHN = tested on: ACHN
SK-MEL-2 = tested on: SK-MEL-2
SNB-75 = tested on: SNB-75
EKVX = tested on: EKVX
HCT-116 = tested on: HCT-116
BT-549 = tested on: BT-549
SW-620 = tested on: SW-620
NCI-H23 = tested on: NCI-H23
UACC-257 = tested on: UACC-257
TK-10 = tested on: TK-10
PC-3 = tested on: PC-3
OVCAR-8 = tested on: OVCAR-8
U-251 = tested on: U-251
UACC-62 = tested on: UACC-62
CAKI-1 = tested on: CAKI-1
DU-145 = tested on: DU-145
CCRF-CEM = tested on: CCRF-CEM
M14 = tested on: M14
KM12 = tested on: KM12
NCI-H522 = tested on: NCI-H522
MCF7 = tested on: MCF7
MDA-N = tested on: MDA-N
IGROV-1 = tested on: IGROV-1
RXF 393 = tested on: RXF 393
NCI-H460 = tested on: NCI-H460
HOP-62 = tested on: HOP-62
A498 = tested on: A498
HL-60 = tested on: HL-60
OVCAR-4 = tested on: OVCAR-4
OVCAR-3 = tested on: OVCAR-3
SK-MEL-28 = tested on: SK-MEL-28
LOX IMVI = tested on: LOX IMVI

NC(CCC(=O)O)(CCC(=O)O)CCC(=O)O
GI50 (MDA-MB-231): > 100 µM (inactive)
GI50 (A549): > 100 µM (inactive)
GI50 (HCT-15): > 100 µM
GI50 (NCI-H226): > 100 µM (inactive)
GI50 (HOP-92): > 100 µM (inactive)
GI50 (K562): > 100 µM (inactive)
GI50 (NCI/ADR-RES): > 100 µM (inactive)
GI50 (SF-295): > 100 µM (inactive)
GI50 (Malme-3M): > 100 µM (inactive)
GI50 (786-0): > 100 µM (inactive)
GI50 (SN12C): > 100 µM (inactive)
GI50 (RPMI-8226): > 100 µM (inactive)
GI50 (OVCAR-5): > 100 µM (inactive)
GI50 (COLO 205): > 100 µM (inactive)
GI50 (Hs-578T): > 100 µM (inactive)
GI50 (SR): > 100 µM (inactive)
GI50 (T47D): > 100 µM (inactive)
GI50 (HT-29): > 100 µM (inactive)
GI50 (SNB-19): > 100 µM (inactive)
GI50 (MOLT-4): > 100 µM (inactive)
GI50 (SF-268): > 100 µM (inactive)
GI50 (MDA-MB-435): > 100 µM (inactive)
GI50 (SF-539): > 100 µM (inactive)
GI50 (SK-OV-3): > 100 µM (inactive)
GI50 (UO-31): > 100 µM (inactive)
GI50 (SK-MEL-5): > 100 µM (inactive)
GI50 (ACHN): > 100 µM (inactive)
GI50 (SK-MEL-2): > 100 µM (inactive)
GI50 (SNB-75): > 100 µM (inactive)
GI50 (EKVX): > 100 µM (inactive)
GI50 (HCT-116): > 100 µM (inactive)
GI50 (BT-549): > 100 µM (inactive)
GI50 (SW-620): > 100 µM (inactive)
GI50 (NCI-H23): > 100 µM (inactive)
GI50 (UACC-257): > 100 µM (inactive)
GI50 (TK-10): > 100 µM (inactive)
GI50 (PC-3): > 100 µM (inactive)
GI50 (OVCAR-8): > 100 µM (inactive)
GI50 (U-251): > 100 µM (inactive)
GI50 (UACC-62): > 100 µM (inactive)
GI50 (CAKI-1): > 100 µM (inactive)
GI50 (DU-145): > 100 µM (inactive)
GI50 (CCRF-CEM): > 100 µM (inactive)
GI50 (M14): > 100 µM (inactive)
GI50 (KM12): > 100 µM (inactive)
GI50 (NCI-H522): 11.5 µM (inactive)
GI50 (MCF7): > 100 µM (inactive)
GI50 (MDA-N): > 100 µM (inactive)
GI50 (IGROV-1): > 100 µM (inactive)
GI50 (RXF 393): > 100 µM (inactive)
GI50 (NCI-H460): > 100 µM (inactive)

Cc1c(/N=N/c2ccc(Cl)cc2)c(-c2ccccc2)n(C2OC(CO)C(O)C(O)C2O)c(=S)c1C#N (stereo not given)
GI50 (MDA-MB-231): 20.3 µM (inactive)
GI50 (A549): 17.3 µM (inactive)
GI50 (HCT-15): 17.1 µM
GI50 (HOP-92): 14.2 µM (inactive)
GI50 (K562): 13.6 µM (inactive)
GI50 (HOP-62): 19.1 µM (inactive)
GI50 (A498): 7.87 µM (inactive)
GI50 (NCI/ADR-RES): 13.6 µM (inactive)
GI50 (SF-295): 24.9 µM (inactive)
GI50 (Malme-3M): 25.5 µM (inactive)
GI50 (786-0): 20.2 µM (inactive)
GI50 (HL-60): 32.6 µM (inactive)
GI50 (SN12C): 16.6 µM (inactive)
GI50 (RPMI-8226): 25.2 µM (inactive)
GI50 (OVCAR-5): 19.2 µM (inactive)
GI50 (COLO 205): 21.2 µM (inactive)
GI50 (OVCAR-4): 17.2 µM (inactive)
GI50 (Hs-578T): 21.5 µM (inactive)
GI50 (SR): 20.6 µM (inactive)
GI50 (T47D): 19.1 µM (inactive)
GI50 (HT-29): 16.6 µM (inactive)
GI50 (SNB-19): 12.3 µM (inactive)
GI50 (MOLT-4): 8.04 µM (inactive)
GI50 (SF-268): 22.2 µM (inactive)
GI50 (MDA-MB-435): 10.5 µM (inactive)
GI50 (SF-539): 20.7 µM (inactive)
GI50 (SK-OV-3): 16.9 µM (inactive)
GI50 (OVCAR-3): 18.5 µM (inactive)
GI50 (UO-31): 19.8 µM (inactive)
GI50 (SK-MEL-5): 13.1 µM (inactive)
GI50 (SK-MEL-28): 15.4 µM (inactive)
GI50 (ACHN): 16 µM (inactive)
GI50 (SK-MEL-2): 18.8 µM (inactive)
GI50 (SNB-75): 18.7 µM (inactive)
GI50 (LOX IMVI): 18.2 µM (inactive)
GI50 (HCT-116): 14.3 µM (inactive)
GI50 (BT-549): 16 µM (inactive)
GI50 (SW-620): 17.6 µM (inactive)
GI50 (NCI-H23): 10.7 µM (inactive)
GI50 (UACC-257): 22.1 µM (inactive)
GI50 (TK-10): 21.2 µM (inactive)
GI50 (PC-3): 10.6 µM (inactive)
GI50 (U-251): 12.7 µM (inactive)
GI50 (UACC-62): 13.4 µM (inactive)
GI50 (CAKI-1): 18.1 µM (inactive)
GI50 (DU-145): 19 µM (inactive)
GI50 (CCRF-CEM): 10 µM (inactive)
GI50 (M14): 17.4 µM (inactive)
GI50 (KM12): 16.8 µM (inactive)
GI50 (MCF7): 15.2 µM (inactive)
GI50 (MDA-N): 18.2 µM (inactive)
GI50 (IGROV-1): 15.1 µM (inactive)
GI50 (RXF 393): 15 µM (inactive)
GI50 (NCI-H460): 18.8 µM (inactive)

From ChEMBL document CHEMBL1201862, “PubChem BioAssay data set” (2004)
